# Columns and labels:
# [1] = molecular target: 5-hydroxytryptamine receptor 1B (Homo sapiens, UniProt P28222); test: Binding affinity towards human 5-hydroxytryptamine 1B receptor in L-M(tk-) cells using [3H]GR-125743 as radioligand; format: cell-based
# [2] = molecular target: Sodium-dependent serotonin transporter (Rattus norvegicus, UniProt P31652); test: In vitro binding affinity towards serotonin transporter using [3H]citalopram as radioligand in rat cerebral cortex membranes; format: cell membranes, Membrane
# [3] = molecular target: D(2) dopamine receptor (Rattus norvegicus, UniProt P61169); test: Binding affinity determined against dopamine receptor D2 in rat caudate membranes using [3H]- raclopride as radioligand; format: cell membranes
# [4] = molecular target: T1, Adrenergic receptor alpha-1 (Rattus norvegicus, UniProt P15823+P23944+P43140); test: Binding affinity determined against alpha-1 adrenergic receptor in rat cortex membranes using [3H]prazosin as radioligand; format: cell membranes
# T1 sequence (P15823 whole entry): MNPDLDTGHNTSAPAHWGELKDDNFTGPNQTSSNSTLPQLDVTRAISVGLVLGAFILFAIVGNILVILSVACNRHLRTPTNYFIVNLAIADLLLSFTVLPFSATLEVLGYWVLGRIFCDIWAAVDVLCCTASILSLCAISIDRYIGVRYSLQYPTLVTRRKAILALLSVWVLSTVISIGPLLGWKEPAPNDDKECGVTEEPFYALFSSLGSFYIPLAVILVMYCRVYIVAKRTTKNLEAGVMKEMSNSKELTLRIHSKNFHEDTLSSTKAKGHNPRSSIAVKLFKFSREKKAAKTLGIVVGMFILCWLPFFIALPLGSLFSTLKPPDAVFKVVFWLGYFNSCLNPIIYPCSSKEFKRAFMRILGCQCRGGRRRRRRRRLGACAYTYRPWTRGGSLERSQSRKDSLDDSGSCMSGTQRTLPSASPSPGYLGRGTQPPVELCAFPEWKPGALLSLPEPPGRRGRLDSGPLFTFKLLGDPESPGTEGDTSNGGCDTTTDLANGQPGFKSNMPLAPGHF
# T1 sequence (P23944 whole entry): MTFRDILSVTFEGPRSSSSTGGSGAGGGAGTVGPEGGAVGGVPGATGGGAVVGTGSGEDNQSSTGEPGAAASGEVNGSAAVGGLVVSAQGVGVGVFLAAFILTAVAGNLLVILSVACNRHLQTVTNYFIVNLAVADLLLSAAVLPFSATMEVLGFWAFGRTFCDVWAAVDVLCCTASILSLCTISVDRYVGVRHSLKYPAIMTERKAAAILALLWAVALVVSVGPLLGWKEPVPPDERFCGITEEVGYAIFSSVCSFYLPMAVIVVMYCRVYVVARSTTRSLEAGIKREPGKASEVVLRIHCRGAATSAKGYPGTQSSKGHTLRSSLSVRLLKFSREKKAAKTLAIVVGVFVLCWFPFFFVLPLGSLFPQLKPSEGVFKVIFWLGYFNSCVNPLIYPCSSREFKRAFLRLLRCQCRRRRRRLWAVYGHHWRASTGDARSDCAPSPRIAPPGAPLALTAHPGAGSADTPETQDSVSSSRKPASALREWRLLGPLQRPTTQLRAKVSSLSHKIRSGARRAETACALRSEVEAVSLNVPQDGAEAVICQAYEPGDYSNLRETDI
# T1 sequence (P43140 whole entry): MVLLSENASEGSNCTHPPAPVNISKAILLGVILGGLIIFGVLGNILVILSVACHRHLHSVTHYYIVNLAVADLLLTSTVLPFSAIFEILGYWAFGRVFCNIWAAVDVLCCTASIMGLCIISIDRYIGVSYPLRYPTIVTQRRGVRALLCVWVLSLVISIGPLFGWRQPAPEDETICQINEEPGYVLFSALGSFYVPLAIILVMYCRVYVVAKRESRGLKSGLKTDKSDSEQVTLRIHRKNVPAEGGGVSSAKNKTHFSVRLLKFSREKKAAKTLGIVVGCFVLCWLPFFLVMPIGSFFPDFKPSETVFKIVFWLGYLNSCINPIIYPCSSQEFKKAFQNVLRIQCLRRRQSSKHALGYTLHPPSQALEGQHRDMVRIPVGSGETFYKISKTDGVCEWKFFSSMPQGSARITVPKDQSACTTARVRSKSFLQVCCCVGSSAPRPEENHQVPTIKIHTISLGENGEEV
# [5] = molecular target: 5-hydroxytryptamine receptor 1D (Homo sapiens, UniProt P28221); test: Binding affinity towards human 5-hydroxytryptamine 1D receptor in L-M(tk-) cells using [3H]GR-125743 as radioligand; format: cell-based
# [6] = organism: Cavia porcellus; test: Ability at 30 uM to potentiate potassium-stimulated [3H]5-HT release from preloaded guinea pig cortical slices; format: functional
# Chain of D(2) dopamine receptor (P61169 whole entry): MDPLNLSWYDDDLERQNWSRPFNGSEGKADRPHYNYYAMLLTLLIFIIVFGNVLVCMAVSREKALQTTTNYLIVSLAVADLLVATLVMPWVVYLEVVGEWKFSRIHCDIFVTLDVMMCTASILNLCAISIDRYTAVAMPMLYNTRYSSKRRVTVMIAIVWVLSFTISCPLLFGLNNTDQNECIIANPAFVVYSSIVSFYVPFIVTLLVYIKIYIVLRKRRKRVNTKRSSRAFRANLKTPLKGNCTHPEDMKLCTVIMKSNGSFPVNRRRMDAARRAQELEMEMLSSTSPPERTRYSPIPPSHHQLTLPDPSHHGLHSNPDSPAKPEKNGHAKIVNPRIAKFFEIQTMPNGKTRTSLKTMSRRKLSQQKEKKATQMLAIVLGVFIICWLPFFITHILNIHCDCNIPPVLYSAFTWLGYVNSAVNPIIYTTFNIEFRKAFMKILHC
# Chain of Sodium-dependent serotonin transporter (P31652 whole entry): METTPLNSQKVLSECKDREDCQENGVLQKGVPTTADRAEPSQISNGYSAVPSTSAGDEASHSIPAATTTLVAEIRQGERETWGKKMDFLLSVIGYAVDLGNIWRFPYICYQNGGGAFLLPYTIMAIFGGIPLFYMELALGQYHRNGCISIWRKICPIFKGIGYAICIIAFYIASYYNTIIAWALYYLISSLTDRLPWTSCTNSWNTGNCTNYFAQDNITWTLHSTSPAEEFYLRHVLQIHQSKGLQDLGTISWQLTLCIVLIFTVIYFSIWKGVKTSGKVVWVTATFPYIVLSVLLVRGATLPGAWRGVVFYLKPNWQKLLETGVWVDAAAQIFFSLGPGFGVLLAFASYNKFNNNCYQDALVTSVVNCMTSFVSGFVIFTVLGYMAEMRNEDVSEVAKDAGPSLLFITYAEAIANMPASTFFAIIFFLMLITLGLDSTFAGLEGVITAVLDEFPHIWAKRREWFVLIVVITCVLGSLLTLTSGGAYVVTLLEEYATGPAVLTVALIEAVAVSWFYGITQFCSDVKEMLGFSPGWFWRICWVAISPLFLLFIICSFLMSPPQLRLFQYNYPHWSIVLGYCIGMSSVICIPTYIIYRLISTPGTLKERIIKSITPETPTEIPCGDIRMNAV
# Chain of 5-hydroxytryptamine receptor 1B (P28222 whole entry): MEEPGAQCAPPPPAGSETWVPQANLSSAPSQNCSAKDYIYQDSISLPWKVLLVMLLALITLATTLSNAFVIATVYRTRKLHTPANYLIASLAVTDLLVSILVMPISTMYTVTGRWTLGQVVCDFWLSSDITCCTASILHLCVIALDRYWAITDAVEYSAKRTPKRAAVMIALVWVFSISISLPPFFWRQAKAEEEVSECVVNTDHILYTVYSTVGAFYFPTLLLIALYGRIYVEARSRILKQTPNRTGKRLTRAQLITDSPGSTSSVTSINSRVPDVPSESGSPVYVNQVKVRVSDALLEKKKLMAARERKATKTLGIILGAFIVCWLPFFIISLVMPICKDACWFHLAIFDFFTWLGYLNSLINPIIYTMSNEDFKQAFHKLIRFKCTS
# Chain of 5-hydroxytryptamine receptor 1D (P28221 whole entry): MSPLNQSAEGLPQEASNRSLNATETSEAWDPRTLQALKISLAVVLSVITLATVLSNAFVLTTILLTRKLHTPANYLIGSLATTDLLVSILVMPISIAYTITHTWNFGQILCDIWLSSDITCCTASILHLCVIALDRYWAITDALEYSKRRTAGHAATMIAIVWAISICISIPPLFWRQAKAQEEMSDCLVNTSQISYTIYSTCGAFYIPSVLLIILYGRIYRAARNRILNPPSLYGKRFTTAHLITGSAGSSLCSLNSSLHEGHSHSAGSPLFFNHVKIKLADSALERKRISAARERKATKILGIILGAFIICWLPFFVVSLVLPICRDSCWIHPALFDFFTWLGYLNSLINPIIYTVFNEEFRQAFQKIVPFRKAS
Structure (SMILES),Ki [1] [nM],Ki [2] [nM],Ki [3] [nM],Ki [4] [nM],Ki [5] [nM],Release [6] [%]
NC(=O)c1ccc2c(c1)CCO[C@@H]2CCN1CC=C(c2c[nH]c3c(F)cccc23)CC1,199,0.2,48,1.7,25,
NC(=O)c1ccc2c(c1)CCO[C@H]2CCN1CC=C(c2c[nH]c3c(F)cccc23)CC1,387,0.3,7,2.8,15,
NC(=O)c1ccc2c(c1)CCOC2CCN1CC=C(c2ccc(F)c3ccoc23)CC1 (configuration not stated),,1.9,52,31,27,
NC(=O)c1ccc2c(c1)CCOC2CCN1CC=C(c2c[nH]c3cc(Cl)ccc23)CC1 (configuration not stated),> 1000,0.38,,,145,
NC(=O)c1ccc2c(c1)CCOC2CCN1CC=C(c2ccc3cc(F)ccc3c2)CC1 (configuration not stated),> 1000,2.2,491,36,71,
NC(=O)c1ccc2c(c1)CCOC2CCN1CCN(c2c[nH]c3cc(F)ccc23)CC1 (configuration not stated),310,19,7.1,5.8,74,
Cn1cc(C2=CCN(CCC3OCCc4cc(C(N)=O)ccc43)CC2)c2ccc(F)cc21 (configuration not stated),> 1000,0.98,73,17,65,
N#Cc1cccc2c(C3=CCN(CCC4OCCc5cc(C(N)=O)ccc54)CC3)c[nH]c12 (configuration not stated),> 1000,2.1,15,134,130,
C[C@H]1CC(c2c[nH]c3cc(F)ccc23)CCN1CCC1OCCc2cc(C(N)=O)ccc21 (some centres not stated),> 1000,0.78,86,20,28,
NC(=O)c1ccc2c(c1)CCOC2CCN1CC=C(c2c[nH]c3cc(C(F)(F)F)ccc23)CC1 (configuration not stated),> 1000,0.99,8.6,190,122,
NC(=O)c1ccc2c(c1)CCOC2CCN1CC=C(c2[nH]nc3cc(F)ccc23)CC1 (configuration not stated),210,0.5,33,2.1,24,
Cn1nc(C2=CCN(CCC3OCCc4cc(C(N)=O)ccc43)CC2)c2ccc(F)cc21 (configuration not stated),> 1000,0.54,183,16,51,
NC(=O)c1ccc2c(c1)CCOC2CCN1CCC(c2nsc3cc(F)ccc23)CC1 (configuration not stated),200,53,,,40,
NC(=O)c1ccc2c(c1)CCOC2CCN1CC=C(c2c[nH]c3ccc(F)cc23)CC1 (configuration not stated),> 1000,1.6,2.1,101,130,
NC(=O)c1ccc2c(c1)CCOC2CCN1CCC(c2c[nH]c3cc(F)ccc23)CC1 (configuration not stated),131,2,19,12,8.4,
NC(=O)c1ccc2c(c1)CCOC2CCN1CCC(c2cccc3ccccc23)CC1 (configuration not stated),73,15,50,30,14,52
NC(=O)c1ccc2c(c1)CCOC2CCN1CCC(c2c[nH]c3cc(F)ccc23)C1 (configuration not stated),96,2.1,28,1.2,40,
NC(=O)c1ccc2c(c1)CCOC2CCN1CC=C(c2noc3cc(F)ccc23)CC1 (configuration not stated),155,8,37,3,63,
NC(=O)c1ccc2c(c1)CCOC2CCN1CC=C(c2cccc3ccccc23)CC1 (configuration not stated),153,3.2,167,224,5.4,11
NC(=O)c1ccc2c(c1)CCOC2CCN1CC=C(c2csc3cc(F)ccc23)CC1 (configuration not stated),186,1,3.8,17,20,
NC(=O)c1ccc2c(c1)CCOC2CCN1CC=C(c2coc3cc(F)ccc23)CC1 (configuration not stated),155,0.29,21,2.8,28,
NC(=O)c1ccc2c(c1)CCOC2CCN1CC=C(c2c[nH]c3c(F)c(F)ccc23)CC1 (configuration not stated),> 1000,0.3,6.7,16,57,
NC(=O)c1ccc2c(c1)CCOC2CCN1CC=C(c2c[nH]c3c(F)cccc23)CC1 (configuration not stated),> 1000,0.76,3.8,26,26,
NC(=O)c1ccc2c(c1)CCOC2CCN1CC=C(c2c[nH]c3cc(F)ccc23)CC1 (configuration not stated),281,0.11,4.7,16,56,36
NC(=O)c1ccc2c(c1)CCOC2CCN1CC=C(c2cccc3ccc(F)cc23)CC1 (configuration not stated),210,13,87,202,26,
COc1ccc2[nH]cc(C3=CCN(CCC4OCCc5cc(C(N)=O)ccc54)CC3)c2c1 (configuration not stated),316,3.5,26,75,31,42
NC(=O)c1ccc2c(c1)CCOC2CCN1CC=C(c2c[nH]c3c(Cl)c(Cl)ccc23)CC1 (configuration not stated),> 1000,0.28,,,165,

# From ChEMBL document CHEMBL1137925, “SAR development of a selective 5-HT1D antagonist/serotonin reuptake inhibitor lead using rapid parallel synthesis” (Bioorg Med Chem Lett, 2004)
